Compound: CCOc1cc2ncc(C#N)c(Nc3ccc(OCc4ccccn4)c(Cl)c3)c2cc1NC(=O)/C=C/CN(C)C [Neratinib] + CC(C)C[C@H](NC(=O)[C@H](Cc1ccccc1)NC(=O)c1cnccn1)B(O)O [Bortezomib] (partner 0.002 µM)
Assay: relative viability (nuclei count vs DMSO), 5 days (fraction); higher = more cells survive
In short: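 A single step with final 0.05% Triton X-100, 1% formaldehyde and 1 ug/ml Hoechst fixed the cells and stained nuclei 5 days after treatment. Lung cancer cell lines in 1536-well plates had been treated by pin tool the day after seeding with one drug alone or a fixed anchor-drug dose plus five library-drug doses (not always all listed) in √10 steps, and nuclei were counted on 4× images. Relative viability is the ratio of nuclei in treated wells to nuclei in vehicle wells, taken as the median of duplicate plates.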

Row | Cell Line | relative viability (first compound 0.01 µM) | relative viability (first compound 0.03162 µM) | relative viability (first compound 0.1 µM) | relative viability (first compound 0.3162 µM) | relative viability (first compound 1 µM)
1 | H3255 | 0.776 | 0.97 | 0.556 | 0.225 | 0.233
2 | EPLC-272H | 0.841 | 0.994 | 0.881 | 0.775 | 0.65
3 | SW 1573 | 1.07 | 1.28 | 0.998 | 1.08 | 0.843
4 | EKVX | 1.02 | 1.18 | 0.894 | 0.271 | 0.184
5 | ChaGo-K-1 | 1.06 | 1.04 | 0.873 | 0.745 | 0.912
6 | NCI-H2347 | 1.01 | 1.12 | 0.808 | 0.721 | 1.11
7 | EMC-BAC-2 | 1.25 | 1.13 | 0.979 | 0.99 | 0.889
8 | LOU-NH91 | 0.477 | 0.51 | 0.484 | 0.507 | 0.559
9 | LU99A | 1.11 | 1.18 | 0.762 | 0.927 | 0.413
10 | NCI-H520 | 0.468 | 0.788 | 0.448 | 0.426 | 0.31
11 | 201T | 1.08 | 1.1 | 1.06 | 1.12 | 1.09
12 | NCI-H3122 | 1.05 | 1.1 | 0.98 | 1.06 | 0.775
13 | NCI-H1703 | 0.335 | 0.345 | 0.394 | 0.233 | 0.18
14 | NCI-H1755 | 1.08 | 0.934 |  | 1.04 | 0.958
15 | NCI-H2126 | 1.2 | 1.13 | 1.05 | 1.07 | 0.821
16 | NCI-H23 | 0.964 | 1.31 | 1.07 | 1.13 | 0.821
17 | PC-3 [JPC-3] | 0.834 | 0.844 | 0.82 | 0.802 | 0.365
18 | NCI-H838 | 0.921 | 1.12 | 0.729 | 0.627 | 0.328
19 | NCI-H650 | 0.94 | 1.07 | 1.08 |  | 0.852
20 | EBC-1 | 0.599 | 0.569 | 0.541 | 0.533 | 0.349
21 | PC-14 | 0.88 | 0.86 | 0.741 | 0.918 | 0.158
22 | NCI-H1299 | 1.03 | 1 | 0.965 | 1.03 | 1.1
23 | NCI-H2009 | 0.998 | 1.08 | 0.856 | 0.825 | 

Row | Cell Line | relative viability (first compound 0.01 µM) | relative viability (first compound 0.03162 µM) | relative viability (first compound 0.1 µM) | relative viability (first compound 0.3162 µM) | relative viability (first compound 1 µM)
24 | RERF-LC-KJ | 1.19 | 1.07 | 0.87 | 0.878 | 0.596
25 | NCI-H1437 | 0.639 |  | 0.565 | 0.385 | 0.475
26 | LCLC-103H | 1.18 | 1.1 | 0.905 | 1.16 | 1.1
27 | NCI-H460 | 1.22 | 1.36 |  | 1.27 | 0.587
28 | NCI-H1993 |  | 1.11 | 0.763 | 0.646 | 
29 | BEN | 0.844 | 1.02 | 0.72 | 0.615 | 0.635
30 | LC-2-ad | 1 | 1.07 | 0.866 | 1 | 0.963
31 | COR-L23 | 1.06 | 1.18 | 0.888 | 0.964 | 0.799
32 | NCI-H1650 | 0.207 | 0.201 | 0.206 | 0.228 | 0.197
33 | UMC-11 | 0.623 | 0.964 | 0.823 | 0.615 | 0.729
34 | NCI-H1915 | 1.06 | 1.03 | 0.952 | 0.874 | 0.962
35 | NCI-H661 | 0.779 | 0.697 | 0.675 | 0.446 | 0.24
36 | IA-LM | 0.952 | 0.908 | 0.787 | 0.891 | 0.507
37 | NCI-H2023 | 1.08 | 1.08 | 0.802 | 0.995 | 0.69
38 | NCI-H2228 | 1.16 | 1.03 | 1.01 | 0.765 | 0.295
39 | LXF-289 | 1.02 | 0.998 | 0.93 | 1.03 | 0.975
40 | NCI-H1563 | 0.812 |  | 0.685 | 0.752 | 0.647
41 | HCC-44 | 0.997 | 0.954 | 0.78 | 0.931 | 0.952
42 | SK-LU-1 | 1.3 | 1.5 | 1.34 | 1.14 | 0.504
43 | HOP-62 | 0.872 | 0.855 | 0.624 | 0.541 | 1
44 | NCI-H1666 | 0.894 | 0.896 | 0.767 | 0.609 | 0.662
45 | NCI-H1355 | 1.23 | 1.3 | 1.16 | 1.02 | 0.752
46 | HCC-827 | 1.05 | 1.07 | 0.876 | 1.13 | 0.376

Row | Cell Line | relative viability (first compound 0.01 µM) | relative viability (first compound 0.03162 µM) | relative viability (first compound 0.1 µM) | relative viability (first compound 0.3162 µM) | relative viability (first compound 1 µM)
47 | HARA | 1.26 | 1.15 | 0.97 | 0.974 | 0.79
48 | HCC-366 | 1.16 | 1.13 |  | 1.01 | 1.07
49 | NCI-H441 | 0.661 | 0.381 | 0.372 | 0.54 | 0.265
50 | NCI-H2405 | 1.05 | 1.09 | 0.708 | 0.998 | 0.954
51 | NCI-H1975 | 0.36 | 0.428 | 0.423 | 0.252 | 0.191
52 | NCI-H647 |  | 0.914 | 0.586 | 0.558 | 0.664
53 | ABC-1 | 0.297 | 0.348 | 0.379 | 0.3 | 0.312
54 | A-427 | 1.08 | 0.996 | 1.02 | 0.952 | 0.918
55 | LCLC-97TM1 | 0.786 | 0.347 | 0.739 | 0.41 | 0.298
56 | HCC-15 | 0.948 | 1.16 | 0.932 | 0.956 | 0.882
57 | NCI-H727 | 0.961 | 0.914 |  | 0.893 | 0.536
58 | NCI-H596 |  | 1.32 | 1.12 | 1.08 | 0.843
59 | NCI-H1651 | 1.07 | 1.13 | 0.86 | 0.902 | 0.852
60 | NCI-H1792 | 1.01 | 0.965 | 0.897 | 0.896 | 0.745
61 | NCI-H2085 | 1.05 |  | 0.869 | 1.06 | 0.76
62 | COR-L 105 | 0.856 | 0.883 | 0.429 | 0.347 | 0.346
63 | NCI-H1734 | 1.27 | 0.996 | 0.912 | 0.934 | 0.74
64 | NCI-H322M | 1.15 | 1.2 | 1.1 | 0.809 | 0.36
65 | CAL-12T | 0.949 | 1.01 | 0.785 | 0.508 | 0.335
66 | HCC-78 | 0.478 | 0.446 | 0.432 | 0.43 | 0.301
67 | NCI-H2087 | 0.775 | 0.867 |  | 0.782 | 0.857

Source: the supplement of paper PMC10307832
